Data set [1] is described as follows: β cryptoxanthin stabilizing test, Example 3A (water from Citrus unshiu concentrated liquid with additive L-ascorbic acid, stored at 40° C.). The format is physicochemical. The following applies: 0.0015 parts by mass β cryptoxanthin (concentrated liquid) in water. Here is the method:
The prepared concentrated liquid derived from Citrus unshiu and water were mixed. Thus, a mixed solution was prepared. The mixing was conducted so that a mass ratio between β cryptoxanthin contained in the concentrated liquid and the mixed water became […] (0.0015 parts by mass of β cryptoxanthin with respect to 100 parts by mass of finally obtained β cryptoxanthin-containing water). Vitamin C (L-ascorbic acid) was added to the mixed solution, which was then mixed by stirring. Thus, β cryptoxanthin-containing waters were prepared. The total amounts of L-ascorbic acid in the respective β cryptoxanthin-containing waters were set to 0.005, 0.01, 0.02, 0.1, and 0.2 parts by mass with respect to 100 parts by mass of entire β cryptoxanthin-containing water by adding vitamin C. 50 g of five types of the β cryptoxanthin-containing waters were filled in the respective brown bottles. Thereafter, the brown bottles were subjected to a heat sterilization treatment under the condition at 90° C. for 30 minutes, which were then stored at 40° C. Sampling was conducted on a storage start date and after two months from the same. The respective amounts of β cryptoxanthin in samples were measured in the same manner as in Example 1A. Then, assuming that the amount of β cryptoxanthin on the storage start date was 100%, residual ratios of β cryptoxanthin were determined.

A short description of data set [2]: β cryptoxanthin stabilizing test, Example 1B (water from paste, varied β cryptoxanthin concentration, stored at 45° C.). The format is physicochemical. Here is the method:
The prepared paste derived from Citrus unshiu and water were mixed. Thus, β cryptoxanthin-containing waters were prepared. In the mixing, concentrations of the β cryptoxanthin were set to predetermined parts by mass with respect to 100 parts by mass of a combination of the water and components contained in the water. The predetermined parts by mass were 0.0031, 0.0044, 0.0062, 0.0086, 0.0176, and 0.0244 parts by mass. Thus, six types of β cryptoxanthin-containing waters each having a different concentration of the β cryptoxanthin were prepared. Each of the β cryptoxanthin-containing waters was sufficiently stirred. Thereafter 90 g of the resultant β cryptoxanthin-containing water was filled in an aluminum pouch, which was then sterilized under the condition at 85° C. for 30 minutes. As a comparative example, two types of β cryptoxanthin-containing waters were prepared in the same manner as described above except that the concentrations of the β cryptoxanthin were set to 0.0011 and 0.0016 parts by mass.
Six types of the β cryptoxanthin-containing waters of the example and two types of β cryptoxanthin-containing waters of the comparative example were stored at 45° C. for one month. Sampling was conducted on a storage start date and after one month from the storage start date. The respective amounts of β cryptoxanthin in samples were measured by HPLC as shown below. Then, assuming that the amount of β cryptoxanthin on the storage start date was 100%, residual ratios of β cryptoxanthin were determined.
The samples were treated at 70° C. for 30 minutes under alkaline conditions before being subjected to HPLC. By this treatment, β cryptoxanthin in the samples was saponified and was converted to a free form. After the treatment, the samples were subjected to a liquid-liquid extraction and were then concentrated. Concentrated samples thus obtained were used as samples for HPLC.
In the measurements of the amounts of β cryptoxanthin by HPLC, a HPLC system to which a column (J′sphere ODS-M80 (product name) with 250×4.6 mm I.D, produced by YMC Co., Ltd.) had been connected was used, and absorbances at 455 nm were measured by a UV detector (L-4200H (product name), produced by Hitachi Ltd.). Conditions of the column were as follows. • Mobile phase: acetonitrile/tetrahydrofuran (volume ratio: 95/5) containing 0.1% acetic acid and 50 ppm of α-tocopherol • Flow rate: 1.0 mL/minute • Column temperature: 55° C.

Data set [3] in a line: β cryptoxanthin stabilizing test, Example 2B (water from powder, varied β cryptoxanthin concentration, stored at 45° C.). The format is physicochemical. Here is the method: The prepared powder derived from Citrus unshiu and water were mixed. Thus, β cryptoxanthin-containing waters were prepared. In the mixing, concentrations of the β cryptoxanthin were set to predetermined parts by mass with respect to 100 parts by mass of a combination of the water and components contained in the water. The predetermined parts by mass were 0.0005, 0.0010, 0.0022, 0.0031, 0.0060, and 0.0079 parts by mass. Thus, six types of β cryptoxanthin-containing waters each having a different concentration of the β cryptoxanthin were prepared. Each of the β cryptoxanthin-containing waters was sufficiently stirred. Thereafter 90 g of the resultant β cryptoxanthin-containing water was filled in an aluminum pouch, which was then sterilized under the condition at 85° C. for 30 minutes. Six types of the β cryptoxanthin-containing waters of the example were stored at 45° C. for one month. Sampling was conducted on a storage start date and after one month from the storage start date. The respective amounts of β cryptoxanthin in samples were measured by HPLC in the same manner as in Example 1B. Then, assuming that the amount of β cryptoxanthin on the storage start date was 100%, residual ratios of β cryptoxanthin were determined.

A short description of data set [4]: Storage stability at 20° C. and 25° C. calculated by Arrhenius equation, Example 4B. The format is physicochemical. The following applies: for possible storage period in a stable state: β cryptoxanthin-containing waters of Examples 1B, 2B, and 3B. As for the experimental part: With respect to the β cryptoxanthin-containing waters prepared in Examples 1B, 2B, and 3B, storage stability at 20° C. and 25° C. was determined. Determination of the storage stability was performed in the same manner as in Example 4A.

For data set [5] the following is noted: compound of structural formula (1); stated as known; cited from earlier work.

As to `CC1=C(/C=C/C(C)=C/C=C/C(C)=C/C=C/C=C(C)/C=C/C=C(C)/C=C/C2=C(C)C[C@@H](O)CC2(C)C)C(C)(C)CCC1` [β cryptoxanthin], the “Residual ratio of β cryptoxanthin Storage for two months (%)” value in data set [1] (additive L-ascorbic acid 0.005 parts by mass) is on record as 64.3%; in data set [1] (additive L-ascorbic acid 0.01 parts by mass) it was 64.9%; in data set [1] (additive L-ascorbic acid 0.02 parts by mass), 99.1%; in data set [1] (additive L-ascorbic acid 0.1 parts by mass), 100%; in data set [1] (additive L-ascorbic acid 0.2 parts by mass), 37.9%. Further, the “Residual ratio of β cryptoxanthin Storage for one month (%)” value (from here on “Residual ratio … for one month (%)”) amounted to 52.5% in data set [2] (Comparative Example, β cryptoxanthin 0.0011 parts by mass (paste) in water); 59.0% in data set [2] (Comparative Example, β cryptoxanthin 0.0016 parts by mass (paste) in water); 84.8% in data set [2] (Example, β cryptoxanthin 0.0031 parts by mass (paste) in water); 87.8% in data set [2] (Example, β cryptoxanthin 0.0044 parts by mass (paste) in water); 97.0% in data set [2] (Example, β cryptoxanthin 0.0062 parts by mass (paste) in water); 95.3% in data set [2] (Example, β cryptoxanthin 0.0086 parts by mass (paste) in water). Further, the “Residual ratio … for one month (%)” value is given as 93.2% in data set [2] (Example, β cryptoxanthin 0.0176 parts by mass (paste) in water); 105.9% in data set [2] (Example, β cryptoxanthin 0.0244 parts by mass (paste) in water); 5.3% in data set [3] (β cryptoxanthin 0.0005 parts by mass (powder) in water); 45.6% in data set [3] (β cryptoxanthin 0.0010 parts by mass (powder) in water); 75.5% in data set [3] (β cryptoxanthin 0.0022 parts by mass (powder) in water); 82.4% in data set [3] (β cryptoxanthin 0.0031 parts by mass (powder) in water). The results for the “Residual ratio … for one month (%)” value in data set [3] (β cryptoxanthin 0.0060 parts by mass (powder) in water) and in data set [3] (β cryptoxanthin 0.0079 parts by mass (powder) in water) were 97.9% and 101.1%, respectively. Besides, the “storage in a stable state at normal temperature” value in data set [4] (Example 4B, normal temperature (20° C. to 25° C.)) was “two years or more”. Also, the “possible storage period in a stable state” value in data set [4] (20° C.) is reported as “about 32.7 months”; in data set [4] (25° C.) it was “about 15.6 months”. In addition, the solubility in water result in data set [5] was “poorly soluble in water”.

These data come from US20120156333A1, “STABILIZED BETA CRYPTOXANTHIN-CONTAINING WATER AND THE USE THEREOF” (ARKRAY, INC., priority 2010, published 2012).
